Several values for one entry are separate records, joined by “and”; a condition that tells them apart may be missing. Equal values may be shown once. Read-outs that look alike come from different tables or passages of the source.
Key:
telomerase [1] = target: T1, telomerase (Homo sapiens, UniProt O14746); assay: Telomerase repeat processivity IC50: modified dNTP titrated into reactions with all four natural dNTPs; type: biochemical; set-up: made in house; anti-FLAG immunopurification, eluted with 3xFLAG peptide
Method in brief: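 Immunopurified human telomerase reactions with cellular-relevant levels of all four natural dNTPs plus modified dNTP titrated 0–10,000 μM, 1 h at 37 °C; products resolved on denaturing gels and phosphorimaged. Repeat processivity R1/2 = −ln(2)/slope of ln(100−%LB) vs repeat number; IC50 is concentration halving bulk repeat processivity.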

telomerase [2] = target: T1, telomerase; assay: Telomerase extension after insertion of modified dNTP (percent of product terminated at each template position); type: biochemical; set-up: made in house; anti-FLAG immunopurification, eluted with 3xFLAG peptide; details: for Percent of Total Product: 50 μM each dATP, dTTP and dGTP or 6-thio-dGTP, Mean
Procedure: Direct telomerase assays were conducted with 5 nM ^32P-end labeled primer a and d Primer 3 (AGGGTT)3, b Primer 1 (TTAGGG)3, or c Primer 2 […]. […] Products were separated on denaturing gels. Letters on the y-axis of the graph indicate the template base; P indicates unextended 18-mer primer. Graphs represent percent of product terminated at each template position as a function of total products. Images are representative of, and data are the mean ± s.d. from, three independent experiments. Source data are provided as a Source Date file.
The reactions were started by the addition of 3 μl of immunopurified telomerase eluent, incubated at 37 °C for 1 h, then terminated with 2 μl of […] and heat inactivated at 65 °C for 20 min. An equal volume of loading buffer (94% formamide, 0.1× TBE, 0.1% bromophenol blue, 0.1% xylene cyanol) was added to the reaction eluent. The samples were heat denatured for 10 min at 100 °C and loaded onto a 14% denaturing acrylamide gel (7 M urea, 1× TBE) and electrophoresed for 90 min at constant 38 W. Samples were imaged using a Typhoon phosphorimager (GE Healthcare). Percent primer extension was calculated with ImageQuant TL 8.2 by measuring the intensity of each product band and dividing by the total radioactivity in the lane or total products, as indicated in the figure legends.

[3] = 6-thio-dGTP, per replicate N1-N3

T1 sequence (O14746 whole entry): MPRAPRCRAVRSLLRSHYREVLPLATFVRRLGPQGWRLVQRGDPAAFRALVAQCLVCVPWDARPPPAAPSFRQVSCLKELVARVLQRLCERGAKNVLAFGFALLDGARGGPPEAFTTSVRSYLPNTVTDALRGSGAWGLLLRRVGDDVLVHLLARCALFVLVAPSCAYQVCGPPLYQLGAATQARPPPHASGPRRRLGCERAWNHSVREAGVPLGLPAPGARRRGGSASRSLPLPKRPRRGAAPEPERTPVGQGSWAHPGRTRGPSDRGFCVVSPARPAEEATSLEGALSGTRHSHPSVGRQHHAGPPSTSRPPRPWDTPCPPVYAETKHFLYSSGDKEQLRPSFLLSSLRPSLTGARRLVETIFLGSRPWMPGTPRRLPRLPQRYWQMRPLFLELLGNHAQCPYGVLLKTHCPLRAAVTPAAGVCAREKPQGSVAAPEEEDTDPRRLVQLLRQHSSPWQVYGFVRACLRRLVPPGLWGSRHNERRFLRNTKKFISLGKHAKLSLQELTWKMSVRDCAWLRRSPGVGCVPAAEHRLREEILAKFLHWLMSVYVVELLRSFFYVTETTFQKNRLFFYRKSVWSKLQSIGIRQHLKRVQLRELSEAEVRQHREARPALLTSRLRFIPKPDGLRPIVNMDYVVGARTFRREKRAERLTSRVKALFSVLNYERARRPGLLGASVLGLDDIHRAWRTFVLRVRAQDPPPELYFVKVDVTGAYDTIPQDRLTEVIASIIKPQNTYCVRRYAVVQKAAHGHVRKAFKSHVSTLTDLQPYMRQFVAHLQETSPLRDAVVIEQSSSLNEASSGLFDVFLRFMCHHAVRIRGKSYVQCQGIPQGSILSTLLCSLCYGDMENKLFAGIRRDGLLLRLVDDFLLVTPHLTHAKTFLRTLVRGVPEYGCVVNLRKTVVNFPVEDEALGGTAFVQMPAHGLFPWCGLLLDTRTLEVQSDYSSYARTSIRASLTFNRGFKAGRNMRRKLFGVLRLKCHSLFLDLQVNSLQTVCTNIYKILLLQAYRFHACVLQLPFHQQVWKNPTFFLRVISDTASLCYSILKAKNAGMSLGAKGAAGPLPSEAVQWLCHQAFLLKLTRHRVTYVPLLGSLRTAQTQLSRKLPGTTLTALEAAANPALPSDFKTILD

Nc1nc2c(ncn2C2CC(O)C(COP(=O)(O)OP(=O)(O)OP(=O)(O)O)O2)c(=S)[nH]1 (stereo not shown) [6-thio-dGTP]
Processivity R 1/2 (telomerase [1]; 6-thio-dGTP 0.625μM): 4.12 and 2.32 and 3.78 | YIntercept (line fit of ln(100-%LB) vs # telomere repeats) (telomerase [1]; 6-thio-dGTP 0.625μM): 2.91 and 3.25 and 3.64 | ln(100-%LB) (telomerase [1]; 6-thio-dGTP 0.625μM, telomere repeat 1): 3.70 and 3.69 and 3.62 | ln(100-%LB) (telomerase [1]; 6-thio-dGTP 0.625μM, telomere repeat 2): 3.11 and 3.16 and 3.05 | ln(100-%LB) (telomerase [1]; 6-thio-dGTP 0.625μM, telomere repeat 3): 2.56 and 2.68 and 2.52 | ln(100-%LB) (telomerase [1]; 6-thio-dGTP 0.625μM, telomere repeat 4): 2.29 and 2.48 and 2.27 | ln(100-%LB) (telomerase [1]; 6-thio-dGTP 0.625μM, telomere repeat 5): 2.03 and 2.29 and 2.05 | ln(100-%LB) (telomerase [1]; 6-thio-dGTP 0.625μM, telomere repeat 6): 1.75 and 2.06 and 1.79 | ln(100-%LB) (telomerase [1]; 6-thio-dGTP 0.625μM, telomere repeat 7): 1.47 and 1.85 and 1.49 | ln(100-%LB) (telomerase [1]; 6-thio-dGTP 0.625μM, telomere repeat 8): 1.23 and 1.67 and 1.26 | ln(100-%LB) (telomerase [1]; 6-thio-dGTP 0.625μM, telomere repeat 9): 0.98 and 1.45 and 0.96 | ln(100-%LB) (telomerase [1]; 6-thio-dGTP 0.625μM, telomere repeat 10): 0.71 and 1.24 and 0.68 | YIntercept (line fit of ln(100-%LB) vs # telomere repeats) (telomerase [1]; 6-thio-dGTP 10μM): 5.12 and 3.95 and 4.44 | ln(100-%LB) (telomerase [1]; 6-thio-dGTP 10μM, telomere repeat 1): 3.39 and 3.57 and 3.48 | ln(100-%LB) (telomerase [1]; 6-thio-dGTP 10μM, telomere repeat 2): 1.78 and 2.70 and 1.99 | ln(100-%LB) (telomerase [1]; 6-thio-dGTP 10μM, telomere repeat 6): 0.15 | ln(100-%LB) (telomerase [1]; 6-thio-dGTP 10μM, telomere repeat 7): -0.27 | ln(100-%LB) (telomerase [1]; 6-thio-dGTP 10μM, telomere repeat 8): -0.68 | ln(100-%LB) (telomerase [1]; 6-thio-dGTP 10μM, telomere repeat 9): -1.63 | IC50 (telomerase [1]; 6-thio-dGTP, mean of N1-N3, SD 1.45, read-out: Mean IC50 (processivity R 1/2)): 5.48 µM | Bottom (best-fit, processivity R 1/2 vs log concentration) (telomerase [1]; [3]): 0.3229 and 0.05037 and -0.0895 | HillSlope (processivity) (telomerase [1]; [3]): -2.993 and -0.7699 and -0.9281 | Span (best-fit, processivity R 1/2 vs log concentration) (telomerase [1]; [3]): 3.504 and 3.529 and 1.482 | Top (best-fit, processivity R 1/2 vs log concentration) (telomerase [1]; [3]): 3.827 and 3.579 and 1.393 | LogIC50 (processivity) (telomerase [1]; 6-thio-dGTP, per replicate N1-N3, concentration in μM): 0.8984 and 0.6519 and 0.682 | IC50 (telomerase [1]; 6-thio-dGTP, per replicate N1-N3, read-out: IC50 (processivity R 1/2)): 4.49 µM and 4.81 µM | IC50 (telomerase [1]; cellular relevant natural dNTPs, modified dNTP titrated 0 to 10,000 μM, based on repeat processivity, mean ± SD, read-out: Telomerase processivity IC50): 5 ± 2 µM | IC50 (telomerase [1]; log of processivity IC50 (concentration in μM), Supplementary Fig 8b, read-out: Log IC50 (converted)): 5.01 µM | Extension after insertion of the modified dNTP (in words) (telomerase [2]; 50 μM each dNTP, analog substituted for natural dNTP): not a chain terminator | Percent of Total Product (telomerase [2]; Fig 4b, Primer 1 (TTAGGG)3, terminated at rA3): 11.46% | Percent of Total Product (telomerase [2]; Fig 4b, Primer 1, terminated at rA4): 5.50% | Percent of Total Product (telomerase [2]; Fig 4b, Primer 1, terminated at rC1): 37.27% | Percent of Total Product (telomerase [2]; Fig 4b, Primer 1, terminated at rC2): 6.46% | Percent of Total Product (telomerase [2]; Fig 4b, Primer 1, terminated at rC6): 34.87% | Percent of Total Product (telomerase [2]; Fig 4b, Primer 1, terminated at rU5): 3.92% | Percent of Total Product (telomerase [2]; Fig 4c, Primer 2, terminated at rA3): 49.91% | Percent of Total Product (telomerase [2]; Fig 4c, Primer 2, terminated at rA4): 4.12% | Percent of Total Product (telomerase [2]; Fig 4c, Primer 2, terminated at rC1): 23.36% | Percent of Total Product (telomerase [2]; Fig 4c, Primer 2, terminated at rC2): 22.82% | Percent of Total Product (telomerase [2]; Fig 4c, Primer 2, terminated at rC6): 8.70% | Percent of Total Product (telomerase [2]; Fig 4c, Primer 2, terminated at rU5): 0.81% | Percent of Total Product (telomerase [2]; Fig 4d, Primer 3 (AGGGTT)3, terminated at rU5): 4.61% | Percent of Total Product (telomerase [2]; Fig 4d, Primer 3, terminated at rA3): 1.16% | Percent of Total Product (telomerase [2]; Fig 4d, Primer 3, terminated at rC1): 49.66% | Percent of Total Product (telomerase [2]; Fig 4d, Primer 3, terminated at rC2): 7.38% | Percent of Total Product (telomerase [2]; Fig 4d, Primer 3, terminated at rC6): 37.00%

— article PMC7576608, “Mechanisms of telomerase inhibition by oxidized and therapeutic dNTPs” (Nature Communications, 2020)
